# Key:
# UBR1 = molecular target: T1, UBR1 (Rattus norvegicus, UniProt A0A8I5ZK69); test: Inhibition of muscle cell actin degradation by immunoblotting; type: cell-based; details: L6 cell line, compound 5 uM, 24 hours
# T1 construct: endogenous in cells; host or cells: L6 rat muscle-derived cells
# Procedure: To evaluate the actin degradation of compounds in muscle cells, a L6 cell line, which is a rat muscle-derived cell, was cultured using a DMEM medium containing 10% FBS and 1% streptomycin/penicillin in an incubator in which 5% carbon dioxide was maintained. In order to measure the UBR1 binding strength according to the treatment with a representative compound selected from the present compounds, cells were aliquoted into a 12-well plate. The cells were additionally cultured for 24 hours so as to be completely attached to the surface of the plate. […] To extract proteins from the collected cells, 50 uL of a lysis buffer (20 mM Tris, pH 7.4, 150 mM NaCl, 1% Triton-X-100, 2 mM NaF, 2 mM EDTA, 2 mM b-glycerophosphate, 5 mM sodium orthovanadate, 1 mM PMSF, leupeptin, aprotenin) was injected into each sample, and the cells were lysed. A sample buffer was added to each sample based on the measured total protein concentration, and the mixture was reacted at 100° C. for 5 minutes. After 5 uL was taken from the completely reacted sample and aliquoted into each well of an acrylamide gel, an immunoblotting method was performed, and the experimental results were illustrated in [FIG. 4], [FIG. 5], [FIG. 6], [FIG. 7], [FIG. 8], and [FIG. 9]. For the immunoblotting method, a representative experiment was schematized from three or more independent experiments.
# UBR box of Human UBR1 = molecular target: T2, UBR box of Human UBR1 (Homo sapiens, UniProt Q8IWV7); test: UBR box domain binding by microscale thermophoresis (MST); details: RED-NHS labeled UBR1 UBR box protein (Gln97-Pro168), FIGS. 12 to 19
# T2 construct: A Gln97-Pro168 portion corresponding to the UBR box of Human UBR1; made in house; host or cells: E. coli
# T2 sequence (Q8IWV7 97-168): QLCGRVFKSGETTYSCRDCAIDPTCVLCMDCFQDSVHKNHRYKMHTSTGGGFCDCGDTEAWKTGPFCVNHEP
# Procedure: A Gln97-Pro168 portion corresponding to the UBR box of Human UBR1 (UniProt ID: Q81WV7) was cloned into a modified expression vector, and then expressed in E. coli. After affinity chromatography was used, a tag was removed by a protease, and then Gly-His-Met was added to the N-terminal. After ion chromatography was performed, a final UBR box protein of a UBR1 was purified using gel filtration chromatography in a buffer composition of 10 mM NaCl, 20 mM Tris-HCl, 2 mM beta-mercaptoethanol, and pH 7.5.
# A dye of the Monolith protein labeling kit RED-NHS 2nd generation (Cat #MO-L011) has an NHS-ester group that forms a covalent bond with primary amines (lysine residues). This dye is optimized for a Monolith-series device equipped with a RED detector. A purified UBR1 UBR box protein was labeled according to the presented protocol using this kit.
# Thermophoresis refers to a phenomenon in which particles move due to a temperature gradient. Particles present in a high temperature region have greater kinetic energy than particles present in a low temperature region, and more frequently collide with surrounding particles with greater energy. As a result, particles move from the high temperature region to the low temperature region.
# Thermophoresis of proteins is typically different from that of protein-ligand complexes. This is because the binding of the ligand changes its size, electric charge, and solvation energy. […] Therefore, the binding of the UBR1 UBR box protein and the ligand compound was measured using MST, and it was confirmed that the presented ligand binds to the UBR1 UBR box (see FIGS. 12 to 19).
# T1 sequence (A0A8I5ZK69 1-1749): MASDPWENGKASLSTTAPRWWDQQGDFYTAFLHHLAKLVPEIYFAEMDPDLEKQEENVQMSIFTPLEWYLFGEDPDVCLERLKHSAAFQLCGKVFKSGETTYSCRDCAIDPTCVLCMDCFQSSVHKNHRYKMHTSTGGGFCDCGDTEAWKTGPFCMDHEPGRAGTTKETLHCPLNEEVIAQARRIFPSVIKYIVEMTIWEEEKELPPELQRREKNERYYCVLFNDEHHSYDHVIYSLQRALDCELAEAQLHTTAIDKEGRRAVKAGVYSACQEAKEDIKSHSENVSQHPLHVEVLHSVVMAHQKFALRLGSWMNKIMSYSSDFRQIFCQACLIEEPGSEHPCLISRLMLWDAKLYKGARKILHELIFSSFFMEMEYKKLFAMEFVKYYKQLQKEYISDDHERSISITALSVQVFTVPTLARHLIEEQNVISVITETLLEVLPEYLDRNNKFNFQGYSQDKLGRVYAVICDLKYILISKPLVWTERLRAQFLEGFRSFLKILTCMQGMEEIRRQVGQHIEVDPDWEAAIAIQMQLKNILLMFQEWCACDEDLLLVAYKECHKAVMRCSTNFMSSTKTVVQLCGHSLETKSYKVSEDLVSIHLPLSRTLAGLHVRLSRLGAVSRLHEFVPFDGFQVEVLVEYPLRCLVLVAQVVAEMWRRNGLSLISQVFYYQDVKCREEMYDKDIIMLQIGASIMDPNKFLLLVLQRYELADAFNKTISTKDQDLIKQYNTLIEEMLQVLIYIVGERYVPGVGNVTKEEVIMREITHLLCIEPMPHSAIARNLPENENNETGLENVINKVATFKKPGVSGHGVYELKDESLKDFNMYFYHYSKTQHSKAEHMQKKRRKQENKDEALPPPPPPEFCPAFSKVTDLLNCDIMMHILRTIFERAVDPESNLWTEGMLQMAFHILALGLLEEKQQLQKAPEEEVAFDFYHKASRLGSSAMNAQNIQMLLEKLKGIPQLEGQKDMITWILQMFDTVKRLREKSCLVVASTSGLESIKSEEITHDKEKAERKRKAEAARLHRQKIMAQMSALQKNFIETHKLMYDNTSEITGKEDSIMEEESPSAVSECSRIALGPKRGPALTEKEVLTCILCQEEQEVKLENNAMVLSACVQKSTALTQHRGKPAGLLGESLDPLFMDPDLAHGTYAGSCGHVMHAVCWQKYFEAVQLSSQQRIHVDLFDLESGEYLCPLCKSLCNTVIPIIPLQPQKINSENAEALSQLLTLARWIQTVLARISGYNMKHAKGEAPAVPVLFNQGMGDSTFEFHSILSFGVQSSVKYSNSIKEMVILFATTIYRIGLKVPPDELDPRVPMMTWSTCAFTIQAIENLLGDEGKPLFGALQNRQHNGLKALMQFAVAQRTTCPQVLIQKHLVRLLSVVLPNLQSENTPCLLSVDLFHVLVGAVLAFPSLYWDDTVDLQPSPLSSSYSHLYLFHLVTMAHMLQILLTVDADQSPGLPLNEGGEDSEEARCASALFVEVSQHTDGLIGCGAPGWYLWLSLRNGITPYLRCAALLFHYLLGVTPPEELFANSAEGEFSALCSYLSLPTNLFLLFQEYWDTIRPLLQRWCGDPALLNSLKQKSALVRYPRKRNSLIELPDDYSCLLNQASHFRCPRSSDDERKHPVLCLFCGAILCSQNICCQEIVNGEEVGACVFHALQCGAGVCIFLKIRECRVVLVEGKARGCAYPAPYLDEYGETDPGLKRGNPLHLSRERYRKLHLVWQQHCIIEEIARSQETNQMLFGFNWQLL
Compound,level of ACTA1 compared to the control (UBR1),level of ACTA2 compared to the control (UBR1),also measured
"Cc1ccc(S(=O)(=O)NNC(=O)c2ccc(O)cc2)cc1 [Compound 1, N′-(4-hydroxybenzoyl)-4-methylbenzenesulfonohydrazide]",further increased,,binding to UBR1 UBR box (MST) (UBR box of Human UBR1): binds
"Nc1ccc(S(=O)(=O)NNC(=O)c2ccc(-c3ccccc3)cc2)cc1 [Compound 6, N′-([1,1′-biphenyl]-4-carbonyl)-4-aminobenzenesulfonohydrazide]",further increased,,
"Nc1cccc(S(=O)(=O)NNC(=O)c2ccc(O)cc2)c1 [Compound 8, 3-amino-N′-(4-hydroxybenzoyl)benzenesulfonohydrazide]",,further increased,binding to UBR1 UBR box (MST) (UBR box of Human UBR1): binds
"CC(N)c1ccc(S(=O)(=O)NNC(=O)c2ccc(O)cc2)cc1 (stereo not drawn) [Compound 9, 4-(1-aminoethyl)-N′-(4-hydroxybenzoyl)benzenesulfonohydrazide]",,further increased,binding to UBR1 UBR box (MST) (UBR box of Human UBR1): binds
"O=C(NNS(=O)(=O)c1ccc(NCCO)cc1)c1ccc(O)cc1 [Compound 11, N′-(4-hydroxybenzoyl)-4-((2-hydroxyethyl)amino)benzenesulfonohydrazide]",,,binding to UBR1 UBR box (MST) (UBR box of Human UBR1): binds
"COc1ccc(S(=O)(=O)NNC(=O)c2ccc(O)cc2)cc1 [Compound 13, N′-(4-hydroxybenzoyl)-4-methoxybenzenesulfonohydrazide]",,,level of ACTG2 compared to the control (UBR1): further increased; binding to UBR1 UBR box (MST) (UBR box of Human UBR1): binds
"NC(=O)c1ccc(S(=O)(=O)NNC(=O)c2ccc(O)cc2)cc1 [Compound 15, 4-((2-(4-hydroxybenzoyl)hydrazinyl)sulfonyl)benzamide]",,,level of ACTG2 compared to the control (UBR1): further increased
"Nc1ccc(S(=O)(=O)NNC(=O)c2ccc(O)cc2)cc1-c1ccccc1 [Compound 17, 6-amino-N′-(4-hydroxybenzoyl)-[1,1′-biphenyl]-3-sulfonohydrazide]",,,level of ACTG2 compared to the control (UBR1): further increased
"NC(=O)c1ccc(C(=O)NNS(=O)(=O)c2ccc(N)cc2)cc1 [Compound 18, 4-(2-((4-aminophenyl)sulfonyl)hydrazine-1-carbonyl)benzamide]",,further increased,
"Nc1ccc(CNNC(=O)c2ccc(O)cc2)cc1 [Compound 19, N′-(4-aminobenzyl)-4-hydroxybenzohydrazide]",,further increased,
"Nc1ccc(S(=O)(=O)NNC(=O)c2c[nH]c3ccccc23)cc1 [Compound 20, 4-amino-N′-(1H-indole-3-carbonyl)benzenesulfonohydrazide]",,further increased,
"O=C(NNS(=O)(=O)c1ccc([N+](=O)[O-])c(N2CCCC2)c1)c1ccc(O)cc1 [Compound 22, N′-(4-hydroxybenzoyl)-4-nitro-3-(pyrrolidin-1-yl)benzenesulfonohydrazide]",,further increased,
"Nc1ccc(S(=O)(=O)NNC(=O)c2ccc(O)cc2)cc1N1CCCCC1 [Compound 23, 4-amino-N′-(4-hydroxybenzoyl)-3-(piperidin-1-yl)benzenesulfonohydrazide]",,further increased,
"O=C(NNS(=O)(=O)c1cn[nH]c1)c1ccc(O)cc1 [Compound 24, N′-(4-hydroxybenzoyl)-1H-pyrazole-4-sulfonohydrazide]",,further increased,
"O=C(NNS(=O)(=O)c1cccc2c1CCN2)c1ccc(O)cc1 [Compound 25, N′-(4-hydroxybenzoyl)indoline-4-sulfonohydrazide]",,further increased,
"O=C(NNS(=O)(=O)c1cccc2[nH]ccc12)c1ccc(O)cc1 [Compound 26, N′-(4-hydroxybenzoyl)-1H-indole-4-sulfonohydrazide]",,further increased,
"Nc1ccc(S(=O)(=O)NNC(=O)Nc2ccccc2)cc1 [Compound 27, 2-((4-aminophenyl)sulfonyl)-N-phenylhydrazine-1-carboxamide]",,further increased,
"Nc1ccc(S(=O)(=O)NNC(=O)c2cccc3[nH]ccc23)cc1N1CCOCC1 [Compound 28, 4-amino-N′-(1H-indole-4-carbonyl)-3-morpholinobenzenesulfonohydrazide]",,further increased,

Compound,level of ACTA1 compared to the control (UBR1),level of ACTA2 compared to the control (UBR1),also measured
"Nc1ccc(S(=O)(=O)NNC(=O)c2cccc3c2CCN3)cc1 [Compound 29, 4-amino-N′-(indoline-4-carbonyl)benzenesulfonohydrazide]",,,level of ACTG2 compared to the control (UBR1): further increased
"Nc1ccc(S(=O)(=O)NNC(=O)c2ccc(O)cc2)cc1N1CCNCC1 [Compound 30, 4-amino-N′-(4-hydroxybenzoyl)-3-(piperazin-1-yl)benzenesulfonohydrazide]",,,level of ACTG2 compared to the control (UBR1): further increased
"Nc1ccc(S(=O)(=O)NNC(=O)C2Cc3ccccc3C2)cc1 [Compound 31, 4-amino-N′-(2,3-dihydro-1H-indene-2-carbonyl)benzenesulfonohydrazide]",,,level of ACTG2 compared to the control (UBR1): further increased
"Nc1ccc(S(=O)(=O)NNC(=O)N2Cc3ccccc3C2)cc1 [Compound 32, 4-amino-N′-(isoindoline-2-carbonyl)benzenesulfonohydrazide]",,further increased,
"Nc1ccc(S(=O)(=O)NNC(=O)Cc2ccccc2)cc1 [Compound 34, 4-amino-N′-(2-phenylacetyl)benzenesulfonohydrazide]",,further increased,
"O=C(NNS(=O)(=O)c1n[nH]c2ccccc12)c1ccc(O)cc1 [Compound 35, N′-(4-hydroxybenzoyl)-1H-indazole-3-sulfonohydrazide]",further increased,,
"Nc1ccc(S(=O)(=O)NNC(=O)c2ccc3c(c2)NCC3)cc1 [Compound 36, 4-amino-N′-(indoline-6-carbonyl)benzenesulfonohydrazide]",further increased,,
"Nc1ccc(S(=O)(=O)NNC(=O)C2CNc3ccccc32)cc1 (stereo not drawn) [Compound 37, 4-amino-N′-(indoline-3-carbonyl)benzenesulfonohydrazide]",further increased,,
"O=C(NNS(=O)(=O)C1CCNCC1)c1ccc(O)cc1 [Compound 38, N′-(4-hydroxybenzoyl)piperidine-4-sulfonohydrazide]",further increased,,
"Nc1ccc(S(=O)(=O)NNC(=O)c2ccc3c(c2)NCC3)cc1N1CCOCC1 [Compound 39, 4-amino-N′-(indoline-6-carbonyl)-3-morpholinobenzenesulfonohydrazide]",further increased,,
"Nc1ccc(S(=O)(=O)NNC(=O)N2CCNCC2)cc1N1CCOCC1 [Compound 41, 4-amino-3-morpholino-N′-(piperazine-1-carbonyl)benzenesulfonohydrazide]",,,level of ACTC1 compared to the control (UBR1): further increased
"Cc1nc(S(=O)(=O)NNC(=O)c2ccc(O)cc2)cs1 [Compound 42, N′-(4-hydroxybenzoyl)-2-methylthiazole-4-sulfonohydrazide]",,,level of ACTC1 compared to the control (UBR1): further increased
"NC1CCC(S(=O)(=O)NNC(=O)c2ccc(O)cc2)CC1 [Compound 43, (1S,4S)-4-amino-N′-(4-hydroxybenzoyl)cyclohexane-1-sulfonohydrazide]",further increased,,
"Cc1oc(C(=O)O)cc1S(=O)(=O)NNC(=O)c1ccc(O)cc1 [Compound 45, 4-((2-(4-hydroxybenzoyl)hydrazinyl)sulfonyl)-5-methylfuran-2-carboxylic acid]",further increased,,
"O=C(NNS(=O)(=O)C1CCNC1)c1ccc(O)cc1 (stereo not drawn) [Compound 46, N′-(4-hydroxybenzoyl)pyrrolidine-3-sulfonohydrazide]",further increased,,
"O=C(NNS(=O)(=O)c1cc2cccnc2[nH]1)c1ccc(O)cc1 [Compound 47, N′-(4-hydroxybenzoyl)-1H-pyrrolo[2,3-b]pyridine-2-sulfonohydrazide]",further increased,,
"(1R,4R)-4-amino-N′-(4-hydroxybenzoyl)cyclohexane-1-sulfonohydrazide [Compound 44]",further increased,,

# Reference: patent US12559455B2, “Compound as a UBR box domain ligand” (AUTOTAC INC., priority 2020, dated 2026)
